A value given as a limit tells only on which side of the number the result lay.

One data set deals with HCT-15. Briefly: MTT test, cytotoxic activity on non-clonogenic cell lines. The data set is classed as cell-based. The settings on record: Homo sapiens, 10^−5 M, 72 hours of incubation, control condition = 100%, mean value, read-out: mean optical density as percentage of control, HCT-16. In short, it runs like this: (§1)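 Human cancer lines seeded at 20 000–50 000 cells/ml, allowed 24 h to attach, then exposed to compounds at 10^−5 to 10^−10 M versus solvent control.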
For the molecule `COc1ccc(-c2cn(CCC#N)c3cc(OC)cc(OC)c3c2=O)cc1` [CRL8412, 3-[5,7-Dimethoxy-3-(4-methoxyphenyl)-4-oxo-1,4-dihydro-1-quinolinyl]propanenitrile], the viability at 10 µM stood at 83.6%.

As for `CCc1ccc(OC)c2c1c(=O)c(-c1ccc(OC)cc1)cn2C` [CRL8414, 5-Ethyl-8-methoxy-3-(4-methoxyphenyl)-1-methyl-1,4-dihydro-4-quinolinone], the viability at 10 µM is 83.4%.

On to `CCOC(=O)CCn1cc(-c2ccc(OC)cc2)c(=O)c2c(OC)cc(OC)cc21` [CRL8404], for which the viability at 10 µM turned out to be 93.7%.

For the next data set, the system named is T-47D. The data set is described as above. The format is cell-based. The settings on record: Homo sapiens, T47D; 10^−5 M, 72 hours of incubation, control condition = 100%, mean value; read-out: mean optical density as percentage of control, T-47D. Summed up: as §1
Take `COc1ccc(-c2cn(CCC#N)c3cc(OC)cc(OC)c3c2=O)cc1` [CRL8412, 3-[5,7-Dimethoxy-3-(4-methoxyphenyl)-4-oxo-1,4-dihydro-1-quinolinyl]propanenitrile]: the viability at 10 µM came out at 109%.

Regarding `CCc1ccc(OC)c2c1c(=O)c(-c1ccc(OC)cc1)cn2C` [CRL8414, 5-Ethyl-8-methoxy-3-(4-methoxyphenyl)-1-methyl-1,4-dihydro-4-quinolinone], the viability at 10 µM was 96.2%.

Consider `CCOC(=O)CCn1cc(-c2ccc(OC)cc2)c(=O)c2c(OC)cc(OC)cc21` [CRL8404], for which the viability at 10 µM was 66.7%.

The subject of another data set is PC-3. Described as above. The data set is classed as cell-based. The settings on record: Homo sapiens, 10^−5 M, 72 hours of incubation, control condition = 100%, mean value, read-out: mean optical density as percentage of control, PC-3. Summed up: as §1
With `COc1ccc(-c2cn(CCC#N)c3cc(OC)cc(OC)c3c2=O)cc1` [CRL8412, 3-[5,7-Dimethoxy-3-(4-methoxyphenyl)-4-oxo-1,4-dihydro-1-quinolinyl]propanenitrile], the viability at 10 µM came out at 104%.

Turning to `CCc1ccc(OC)c2c1c(=O)c(-c1ccc(OC)cc1)cn2C` [CRL8414, 5-Ethyl-8-methoxy-3-(4-methoxyphenyl)-1-methyl-1,4-dihydro-4-quinolinone], the viability at 10 µM was 94.3%.

As to `CCOC(=O)CCn1cc(-c2ccc(OC)cc2)c(=O)c2c(OC)cc(OC)cc21` [CRL8404], the viability at 10 µM was found to be 99.7%.

A further data set has as its system A549. The data set is described as above. The format is cell-based. The settings on record: Homo sapiens, 10^−5 M, 72 hours of incubation, control condition = 100%, mean value, read-out: mean optical density as percentage of control, A549. In short, it runs like this: as §1
With `COc1ccc(-c2cn(CCC#N)c3cc(OC)cc(OC)c3c2=O)cc1` [CRL8412, 3-[5,7-Dimethoxy-3-(4-methoxyphenyl)-4-oxo-1,4-dihydro-1-quinolinyl]propanenitrile], the viability at 10 µM was found to be 84.5%.

Consider `CCc1ccc(OC)c2c1c(=O)c(-c1ccc(OC)cc1)cn2C` [CRL8414, 5-Ethyl-8-methoxy-3-(4-methoxyphenyl)-1-methyl-1,4-dihydro-4-quinolinone], for which the viability at 10 µM was found to be 71.8%.

`CCOC(=O)CCn1cc(-c2ccc(OC)cc2)c(=O)c2c(OC)cc(OC)cc21` [CRL8404]: the viability at 10 µM is 93.5%.

In another data set the test system is LoVo. The data set is described as above. The settings on record: Homo sapiens, 10^−5 M, 72 hours of incubation, control condition = 100%, mean value, read-out: mean optical density as percentage of control, LoVo. The data set is classed as cell-based. Summed up: as §1
On to `COc1ccc(-c2cn(CCC#N)c3cc(OC)cc(OC)c3c2=O)cc1` [CRL8412, 3-[5,7-Dimethoxy-3-(4-methoxyphenyl)-4-oxo-1,4-dihydro-1-quinolinyl]propanenitrile], for which the viability at 10 µM came out at 77%.

`CCc1ccc(OC)c2c1c(=O)c(-c1ccc(OC)cc1)cn2C` [CRL8414, 5-Ethyl-8-methoxy-3-(4-methoxyphenyl)-1-methyl-1,4-dihydro-4-quinolinone]: the viability at 10 µM was determined as 84.2%.

Take `CCOC(=O)CCn1cc(-c2ccc(OC)cc2)c(=O)c2c(OC)cc(OC)cc21` [CRL8404]: the viability at 10 µM is 90.7%.

The test system of the next data set is MCF7. Described as above. The data set is classed as cell-based. The settings on record: Homo sapiens, 10^−5 M, 72 hours of incubation, control condition = 100%, mean value, read-out: mean optical density as percentage of control, MCF7. In short, it runs like this: as §1
Turning to `COc1ccc(-c2cn(CCC#N)c3cc(OC)cc(OC)c3c2=O)cc1` [CRL8412, 3-[5,7-Dimethoxy-3-(4-methoxyphenyl)-4-oxo-1,4-dihydro-1-quinolinyl]propanenitrile], the viability at 10 µM came out at 99.1%.

Take `CCc1ccc(OC)c2c1c(=O)c(-c1ccc(OC)cc1)cn2C` [CRL8414, 5-Ethyl-8-methoxy-3-(4-methoxyphenyl)-1-methyl-1,4-dihydro-4-quinolinone]: the viability at 10 µM worked out at 104%.

For the molecule `CCOC(=O)CCn1cc(-c2ccc(OC)cc2)c(=O)c2c(OC)cc(OC)cc21` [CRL8404], the viability at 10 µM stood at 93.4%.

Another data set concerns U-87MG. Described as above. The data set is classed as cell-based. The settings on record: Homo sapiens, U-87 MG; 10^−5 M, 72 hours of incubation, control condition = 100%, mean value; read-out: mean optical density as percentage of control, U-87MG. In short, it runs like this:
as §1
For `COc1ccc(-c2cn(CCC#N)c3cc(OC)cc(OC)c3c2=O)cc1` [CRL8412, 3-[5,7-Dimethoxy-3-(4-methoxyphenyl)-4-oxo-1,4-dihydro-1-quinolinyl]propanenitrile], the viability at 10 µM was 83.4%.

`CCc1ccc(OC)c2c1c(=O)c(-c1ccc(OC)cc1)cn2C` [CRL8414, 5-Ethyl-8-methoxy-3-(4-methoxyphenyl)-1-methyl-1,4-dihydro-4-quinolinone]: the viability at 10 µM is 81.2%.

For `CCOC(=O)CCn1cc(-c2ccc(OC)cc2)c(=O)c2c(OC)cc(OC)cc21` [CRL8404], the viability at 10 µM came to 91.5%.

The next data set concerns A-427. The description is as above. The data set is classed as cell-based. The settings on record: Homo sapiens, 10^−5 M, 72 hours of incubation, control condition = 100%, mean value, read-out: mean optical density as percentage of control, A-427. Summed up:
as §1
Regarding `COc1ccc(-c2cn(CCC#N)c3cc(OC)cc(OC)c3c2=O)cc1` [CRL8412, 3-[5,7-Dimethoxy-3-(4-methoxyphenyl)-4-oxo-1,4-dihydro-1-quinolinyl]propanenitrile], the viability at 10 µM was determined as 83.7%.

Take `CCc1ccc(OC)c2c1c(=O)c(-c1ccc(OC)cc1)cn2C` [CRL8414, 5-Ethyl-8-methoxy-3-(4-methoxyphenyl)-1-methyl-1,4-dihydro-4-quinolinone]: the viability at 10 µM was found to be 82.2%.

As for `CCOC(=O)CCn1cc(-c2ccc(OC)cc2)c(=O)c2c(OC)cc(OC)cc21` [CRL8404], the viability at 10 µM was 93.3%.

The next data set concerns U-373MG. The data set is described as above. The format is cell-based. The settings on record: Homo sapiens, U373 MG; 10^−5 M, 72 hours of incubation, control condition = 100%, mean value; read-out: mean optical density as percentage of control, U-373MG. Summed up: as §1
Turning to `COc1ccc(-c2cn(CCC#N)c3cc(OC)cc(OC)c3c2=O)cc1` [CRL8412, 3-[5,7-Dimethoxy-3-(4-methoxyphenyl)-4-oxo-1,4-dihydro-1-quinolinyl]propanenitrile], the viability at 10 µM was 80.8%.

On to `CCc1ccc(OC)c2c1c(=O)c(-c1ccc(OC)cc1)cn2C` [CRL8414, 5-Ethyl-8-methoxy-3-(4-methoxyphenyl)-1-methyl-1,4-dihydro-4-quinolinone], for which the viability at 10 µM was found to be 81.7%.

Consider `CCOC(=O)CCn1cc(-c2ccc(OC)cc2)c(=O)c2c(OC)cc(OC)cc21` [CRL8404], for which the viability at 10 µM came to 104%.

System in another data set: not listed separately
Briefly: Determination of the maximum tolerated dose (MTD). The settings on record: B6D2F1/Jico, mouse, in vivo, ip; single intraperitoneal administration, doses 2.5 to 160 mg/kg, survival over 14 days. Summed up:
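Mice were 4- to 6-week-old B6D2F1/Jico. They received a single intraperitoneal dose of 2.5 to 160 mg/kg, and survival and body weight were followed for 14 days. MTD is given in mg/kg and is capped at 160 mg/kg by default.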
In general, MTD refers to the largest dose that counted as tolerated. With `COc1ccc(-c2cn(CCC#N)c3cc(OC)cc(OC)c3c2=O)cc1` [CRL8412, 3-[5,7-Dimethoxy-3-(4-methoxyphenyl)-4-oxo-1,4-dihydro-1-quinolinyl]propanenitrile], the maximum tolerated dose (MTD) at 14 day was over 160 mg/kg.

In turn, `CCc1ccc(OC)c2c1c(=O)c(-c1ccc(OC)cc1)cn2C` [CRL8414, 5-Ethyl-8-methoxy-3-(4-methoxyphenyl)-1-methyl-1,4-dihydro-4-quinolinone] came in with a maximum tolerated dose (MTD) at 14 day of over 160 mg/kg.

`CCOC(=O)CCn1cc(-c2ccc(OC)cc2)c(=O)c2c(OC)cc(OC)cc21` [CRL8404] gave an MTD at 14 day of over 160 mg/kg.

The test system of a further data set is J82. Briefly: MTT test, cytotoxic activity on non-clonogenic cell lines. The data set is classed as cell-based. The settings on record: Homo sapiens, 10^−5 M, 72 hours of incubation, control condition = 100%, mean value, read-out: mean optical density as percentage of control, J82. In short, it runs like this:
(§2)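 Human bladder cancer lines were seeded at 20 000–50 000 cells/ml and, after 24 h, exposed to compounds at 10^−5 to 10^−10 M against a solvent control. Formazan was dissolved in DMSO and viability was read by spectrophotometric optical density.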
On the technique in general: Formazan colour is commonly taken as a measure of viable cells.
As for `COc1ccc(-c2cn(CCC#N)c3cc(OC)cc(OC)c3c2=O)cc1` [CRL8412, 3-[5,7-Dimethoxy-3-(4-methoxyphenyl)-4-oxo-1,4-dihydro-1-quinolinyl]propanenitrile], the viability at 10 µM is 94.2%.

Regarding `CCc1ccc(OC)c2c1c(=O)c(-c1ccc(OC)cc1)cn2C` [CRL8414, 5-Ethyl-8-methoxy-3-(4-methoxyphenyl)-1-methyl-1,4-dihydro-4-quinolinone], the viability at 10 µM was determined as 110%.

Consider `CCOC(=O)CCn1cc(-c2ccc(OC)cc2)c(=O)c2c(OC)cc(OC)cc21` [CRL8404], for which the viability at 10 µM amounted to 83.8%.

A further data set deals with T24. The data set is described as above. The settings on record: Homo sapiens, T-24; 10^−5 M, 72 hours of incubation, control condition = 100%, mean value; read-out: mean optical density as percentage of control, T24. The format is cell-based. In short, it runs like this: as §2
As for `COc1ccc(-c2cn(CCC#N)c3cc(OC)cc(OC)c3c2=O)cc1` [CRL8412, 3-[5,7-Dimethoxy-3-(4-methoxyphenyl)-4-oxo-1,4-dihydro-1-quinolinyl]propanenitrile], the viability at 10 µM amounted to 100%.

As for `CCc1ccc(OC)c2c1c(=O)c(-c1ccc(OC)cc1)cn2C` [CRL8414, 5-Ethyl-8-methoxy-3-(4-methoxyphenyl)-1-methyl-1,4-dihydro-4-quinolinone], the viability at 10 µM turned out to be 97.5%.

For the molecule `CCOC(=O)CCn1cc(-c2ccc(OC)cc2)c(=O)c2c(OC)cc(OC)cc21` [CRL8404], the viability at 10 µM came to 59.8%.

Another data set concerns SW1088. Described as above. The data set is classed as cell-based. The settings on record: Homo sapiens, 10^−5 M, 72 hours of incubation, control condition = 100%, mean value, read-out: mean optical density as percentage of control, SW1088. Summed up: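 Human astrocytoma SW1088 cells seeded, grown 24 h at 37° C, 5% CO2, then exposed to compounds at 10^−5 to 10^−10 M versus solvent control. Viability by MTT reduction: 3 h MTT incubation, formazan dissolved in DMSO and read by spectrophotometry.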
Take `COc1ccc(-c2cn(CCC#N)c3cc(OC)cc(OC)c3c2=O)cc1` [CRL8412, 3-[5,7-Dimethoxy-3-(4-methoxyphenyl)-4-oxo-1,4-dihydro-1-quinolinyl]propanenitrile]: the viability at 10 µM amounted to 105%.

Consider `CCc1ccc(OC)c2c1c(=O)c(-c1ccc(OC)cc1)cn2C` [CRL8414, 5-Ethyl-8-methoxy-3-(4-methoxyphenyl)-1-methyl-1,4-dihydro-4-quinolinone], for which the viability at 10 µM was 94.4%.

`CCOC(=O)CCn1cc(-c2ccc(OC)cc2)c(=O)c2c(OC)cc(OC)cc21` [CRL8404]: the viability at 10 µM is 72.1%.
